# Measurements from paper PMC11984407, “A natural small molecule isoginkgetin alleviates hypercholesterolemia and atherosclerosis by targeting ACLY” (Theranostics, 2025).
# How the values were obtained:
# HepG2 cell line = test: CCK8 cell viability, HepG2; format: cell-based; conditions: concentrations below 7.5 μmol/L, 12 h
# Protocol: (§1) The cellular viability was assessed by conducting CCK8 assays in primary hepatocytes from C57BL/6J mouse and HepG2 cell line. Specifically, 2,000 cells per well were plated in 96-well plates and cultured with different concentrations of ISOGK for 12 h. Following this, cell absorption was quantified using a CCK8 kit (CA1210, Solarbio, Beijing, China), adhering strictly to the manufacturer's guidelines. The presented data represents the findings from three independent experiments, with each experiment consisting of four replicates.
# Syrian golden hamsters = test: High cholesterol diet-fed Syrian golden hamsters; format: in vivo, hamster
# Protocol: Syrian golden hamsters were purchased from Vital River Laboratories (Beijing, China). Hamsters were fed a high cholesterol diet and received ISOGK (5 mg/kg/day) for 4 weeks. Before being sacrificed, liver and blood samples were collected at the end of the experiment. The animal study protocol was approved by the Ethics Committee of Hefei University of Technology (approval number HFUT20221031001) and conducted in accordance with the guidelines set forth in the "Guide for the Care and Use of Laboratory Animals," published by the National Institutes of Health (NIH).
# Plasma levels of TC, TG, LDL-C, and high-density lipoprotein cholesterol (HDL-C) were determined following the manufacturer's instructions. Liver tissues (30-40 mg) were homogenized in 0.5 mL of cold PBS for hepatic TG and cholesterol measurement. A 0.4 mL homogenate was combined with 1.4 mL of a CHCl3/CH3OH mixture (2:1, v/v) and shaken overnight at room temperature. Following centrifugation at 2,500 × g for a period of 10 min, the organic phase was meticulously transferred and permitted to air-dry. The residual organic material was then reconstituted in 800 μL of ethanol containing 1% Triton X-100, whereby the ethanol served to solubilize the material.
# Fast protein liquid chromatography (FPLC) was employed to analyze plasma lipoproteins using 200 μL of pooled plasma samples. The samples were initially filtered through 0.22-µm filters and subsequently loaded onto Tricorn high-performance Superose S-6 10/300GL columns (Amersham Biosciences). Elution was conducted with PBS at a constant flow rate of 0.25 mL/min. The eluted fractions (500 μL each) were subjected to analysis for TG and TC concentrations using the aforementioned commercial assay kits.
# recombinant ACLY protein = molecular target: T1, recombinant ACLY protein (Homo sapiens, UniProt P53396); test: ACLY activity assay in vitro (cell-free ADP-Glo assay); format: biochemical; conditions: read-out: ACLY enzyme activity IC50
# T1 sequence (P53396 1-1101): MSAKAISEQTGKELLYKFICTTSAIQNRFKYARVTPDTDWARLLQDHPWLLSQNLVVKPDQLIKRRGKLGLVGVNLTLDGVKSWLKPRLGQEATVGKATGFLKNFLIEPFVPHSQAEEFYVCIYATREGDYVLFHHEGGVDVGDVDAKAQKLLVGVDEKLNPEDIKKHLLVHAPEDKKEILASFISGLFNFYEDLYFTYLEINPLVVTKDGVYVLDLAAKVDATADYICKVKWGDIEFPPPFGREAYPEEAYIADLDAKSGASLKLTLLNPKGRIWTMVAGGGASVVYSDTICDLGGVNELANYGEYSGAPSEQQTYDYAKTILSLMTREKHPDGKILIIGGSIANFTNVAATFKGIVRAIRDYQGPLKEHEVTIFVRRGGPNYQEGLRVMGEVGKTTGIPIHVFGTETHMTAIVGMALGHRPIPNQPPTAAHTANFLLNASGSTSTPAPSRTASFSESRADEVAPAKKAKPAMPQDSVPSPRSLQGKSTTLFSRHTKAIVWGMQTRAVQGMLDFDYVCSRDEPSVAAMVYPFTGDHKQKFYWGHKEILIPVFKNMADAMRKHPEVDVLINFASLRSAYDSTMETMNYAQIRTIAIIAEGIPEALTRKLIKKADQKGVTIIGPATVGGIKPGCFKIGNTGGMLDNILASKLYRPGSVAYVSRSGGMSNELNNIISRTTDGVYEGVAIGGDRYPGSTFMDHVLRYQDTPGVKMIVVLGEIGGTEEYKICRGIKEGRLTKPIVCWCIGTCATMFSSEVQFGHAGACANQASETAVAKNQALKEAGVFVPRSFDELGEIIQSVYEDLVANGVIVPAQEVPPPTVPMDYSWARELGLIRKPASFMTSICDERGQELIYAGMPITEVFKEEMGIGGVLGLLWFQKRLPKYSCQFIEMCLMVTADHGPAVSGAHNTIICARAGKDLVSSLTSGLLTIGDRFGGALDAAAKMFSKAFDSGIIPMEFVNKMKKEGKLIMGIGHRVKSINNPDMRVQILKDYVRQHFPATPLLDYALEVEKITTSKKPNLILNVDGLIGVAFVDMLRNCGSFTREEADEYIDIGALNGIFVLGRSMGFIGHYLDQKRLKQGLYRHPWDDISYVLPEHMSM
# Protocol: ACLY activity was assessed in a cell-free system using an ADP-Glo dependent assay, as previously described. Briefly, the reaction was conducted in a 384-well plate containing 2 µL of substrate (5 mmol/L ATP, 30 mmol/L citrate, 15 mmol/L CoA) in kinase buffer (40 mmol/L Tris base, 10 mmol/L MgCl2, 5 mmol/L DTT). The reaction was initiated by adding 20 nmol/L recombinant human ACLY protein and various concentrations of the compounds, followed by incubation for 30 min at 37 °C. During the reaction, ACLY converted ATP to ADP. ADP levels, which reflect ACLY activity, were quantified using the ADP-Glo assay kit (V9102, Promega, Madison, USA) in accordance with the manufacturer's instructions. The enzymatic activity curve was analyzed using the log (inhibitor) versus normalized response-variable slope function in GraphPad Prism.
# [1] = test system: primary hepatocytes from C57BL/6J mouse; test: CCK8 cell viability, primary hepatocytes; format: cell-based; conditions: concentrations below 7.5 μmol/L, 12 h
# Protocol: as §1
# [2] = hamsters, 5 mg/kg/day i.p., 4 weeks
smiles,measurement,setting,value
"COc1ccc(-c2cc(=O)c3c(O)cc(O)c(-c4cc(-c5cc(=O)c6c(O)cc(O)cc6o5)ccc4OC)c3o2)cc1 [ISOGK, Isoginkgetin]",cytotoxicity (CCK-8),HepG2 cell line,no significant cytotoxicity
same,decrease in hepatic TC,Syrian golden hamsters; [2],27.53%
same,decrease in hepatic TG,Syrian golden hamsters; [2],64.14%
same,reduction in serum LDL-C,Syrian golden hamsters; [2],56.55%
same,reduction in serum TC,Syrian golden hamsters; [2],36.12%
same,reduction in serum TG,Syrian golden hamsters; [2],46.87%
same,lipid deposition in liver (Oil Red O),"Syrian golden hamsters; hamsters, 4 weeks",significantly reduced lipid deposition
same,"serum antioxidant indicators (MDA, SOD, ox-LDL)","Syrian golden hamsters; hamsters, 4 weeks",remained unaltered
same,serum TC and TG distribution (FPLC),"Syrian golden hamsters; hamsters, pooled plasma",significant decrease in serum TC and TG distribution
same,serum ALT and AST vs vehicle,"Syrian golden hamsters; high cholesterol diet-fed hamsters, 5 mg/kg/day i.p., 4 weeks",no significant difference
same,LDLR and ACLY protein levels in the liver,"Syrian golden hamsters; hyperlipidemic hamsters, 5 mg/kg/day, 4 weeks",no significant difference
same,IC50,recombinant ACLY protein,5.46 ± 1.11 µM
same,cytotoxicity (CCK-8),[1],no significant cytotoxicity
